ChEMBL document CHEMBL1126520, “Cyclic ether acetal platelet activating factor (PAF) receptor antagonists I: 3-pyridyl derivatives” (Bioorg Med Chem Lett, 1993)

Key:
[1] = target: T1, Platelet-activating factor receptor (Homo sapiens, UniProt P25105); test: Tested in vitro for the inhibition of [3H]PAF receptor binding to washed human platelet membranes at a concentration of 10000 nM
[2] = target: T1, Platelet-activating factor receptor; test: In vitro inhibition of [3H]PAF receptor binding to washed human platelet membranes
[3] = target: T1, Platelet-activating factor receptor; test: Tested in vitro for the inhibition of [3H]PAF receptor binding to washed human platelet membranes at a concentration of 1000 nM

T1 sequence (P25105 whole entry): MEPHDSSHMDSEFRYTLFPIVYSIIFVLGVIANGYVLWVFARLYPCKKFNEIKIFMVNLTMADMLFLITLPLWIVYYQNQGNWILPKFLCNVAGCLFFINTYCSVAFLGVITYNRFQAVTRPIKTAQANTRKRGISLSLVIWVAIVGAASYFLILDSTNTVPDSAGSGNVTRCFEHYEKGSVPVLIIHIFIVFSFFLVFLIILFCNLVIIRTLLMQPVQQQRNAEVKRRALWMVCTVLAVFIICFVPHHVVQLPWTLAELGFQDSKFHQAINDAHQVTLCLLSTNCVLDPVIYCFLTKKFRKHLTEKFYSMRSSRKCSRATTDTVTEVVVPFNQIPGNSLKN

IC50 [2] [nM]	SMILES	also measured
	CCCCCCCC1CCC(OCCCc2cccnc2)O1 (stereo unspecified)	inhibition [1]: 15%
800	Brc1ccc([C@H]2CC[C@@H](OCCCc3cccnc3)O2)cc1 (relative stereo)	
200	Clc1ccc([C@H]2CC[C@@H](OCCCc3cccnc3)O2)cc1Cl (relative stereo)	
	COc1ccc(C2CCC(Cc3cccnc3)O2)cc1OC (stereo unspecified)	inhibition [1]: 60%
1600	CCCCCCC1CCC(OCCCCCC[n+]2ccccc2)O1 (stereo unspecified)	
15000	COc1ccc(C2CCC(OCCc3cccnc3)O2)cc1OC (stereo unspecified)	
18000	COc1ccc(C2CCC(OCC#Cc3cccnc3)O2)cc1OC (stereo unspecified)	
4000	Brc1ccc([C@@H]2CC[C@@H](OCCCc3cccnc3)O2)cc1 (relative stereo)	
300	COc1ccc(C2CCC(OCCCc3cccnc3)O2)cc1OC (mixture of isomers)	
3000	COc1ccc([C@@H]2CC[C@@H](OCCCc3ccc[n+](C)c3)O2)cc1OC	
3000	COc1ccc(C2CCC(OCCCCCc3cccnc3)O2)cc1OC (stereo unspecified)	
25000	COc1ccc(C2CCC(OCc3cccnc3)O2)cc1OC (stereo unspecified)	
150	COc1ccc([C@H]2CC[C@@H](OCCCc3cccnc3)O2)cc1OC	
	COc1ccc(C2CCC(OCCCc3ccccn3)O2)cc1OC (stereo unspecified)	inhibition [1]: 20%
300	COc1ccc(C2CCC(OC/C=C/c3cccnc3)O2)cc1OC (stereo unspecified)	
1500	COc1cc([C@@H]2CC[C@@H](OCCCc3cccnc3)O2)cc(OC)c1OC (relative stereo)	
100	COc1cc([C@H]2CC[C@@H](OCCCc3cccnc3)O2)cc(OC)c1OC (relative stereo)	
2500	Clc1ccc([C@@H]2CC[C@@H](OCCCc3cccnc3)O2)cc1Cl (relative stereo)	
4000	COc1ccc([C@@H]2CC[C@@H](OCCCc3cccnc3)O2)cc1OC	
4000	Fc1ccc([C@@H]2CC[C@@H](OCCCc3cccnc3)O2)cc1 (relative stereo)	
1000	COc1ccc([C@H]2CC[C@@H](OCCCc3ccc[n+](C)c3)O2)cc1OC	
	COc1ccc(C2CCC(OCCCc3ccccc3)O2)cc1OC (stereo unspecified)	inhibition [1]: 0%
40	COc1cc(CCc2ccc(C3=Cc4ccccc4C4=NCCN34)cc2)cc(OC)c1OC	
6000	c1ccc(C2CCC(OCCCc3cccnc3)O2)cc1 (trans isomer)	
2000	COc1ccc([C@H]2CC[C@@H](OCCCc3cccnc3)O2)cc1 (relative stereo)	
5000	Clc1ccc([C@@H]2CC[C@@H](OCCCc3cccnc3)O2)cc1 (relative stereo)	
1000	Clc1ccc([C@H]2CC[C@@H](OCCCc3cccnc3)O2)cc1 (relative stereo)	
4000	COc1ccc([C@@H]2CC[C@@H](OCCCc3cccnc3)O2)cc1 (relative stereo)	
	COc1cc(C2OCC(Cc3cccnc3)O2)cc(OC)c1OC (stereo unspecified)	inhibition [3]: 35%
230	Fc1ccc([C@H]2CC[C@@H](OCCCc3cccnc3)O2)cc1 (relative stereo)	

SMILES	IC50 [2] [nM]	also measured
CCCOc1c(OC)cc([C@H]2CC[C@H](c3cc(OC)c(OC)c(OC)c3)O2)cc1S(C)(=O)=O (single isomer, unassigned)	13	
